Read-outs that look alike come from different tables or passages of the source.
Experiments:
[1] = Pharmacokinetics of JHG components in control rats after intragastric administration of JHGs (plasma, Orbitrap Fusion MS); format: in vivo, Sprague Dawley (SD) rats; conditions: for AUC(0-inf) / AUC(0-t) / half-life / MRT last / MRT inf / Tmax / Cmax: male, rat, plasma, po; for MRT last: read-out: MRT(0-t); for MRT inf: read-out: MRT(0-∞); for Cmax: intragastric JHGs; for pharmacokinetic process (Cmax and AUCs versus dosage): low, medium, high doses of JHGs
Procedure, shortened: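 Male SD rats (240 ± 20 g), fasted 12 h, given JHGs intragastrically at 10.8, 21.6 or 43.2 g raw drug/kg/d. Tail-vein plasma sampled predose to 24 h, methanol-extracted with internal standard, analyzed by C18 LC–Orbitrap MS (ESI, SIM). Parameters from non-compartmental analysis, n = 6.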

[2] = after oral administration; cited from earlier work
[3] = Sprague Dawley, 5.7 g/kg/day, JHGs low dose 5.70 g/kg/d
[4] = Sprague Dawley, 5.7 g/kg/day, JHGs low dose 5.70 g/kg/d, read-out: Tmax
[5] = Sprague Dawley, 5.7 g/kg/day, low dose 5.70 g/kg/d, n=6 (1st of 3 stacked values)
[6] = Sprague Dawley, 11.41 g/kg/day, JHGs medium dose 11.41 g/kg/d
[7] = Sprague Dawley, 11.41 g/kg/day, JHGs medium dose 11.41 g/kg/d, read-out: Tmax
[8] = Sprague Dawley, 11.41 g/kg/day, medium dose 11.41 g/kg/d, n=6 (2nd of 3 stacked values)
[9] = Sprague Dawley, 22.81 g/kg/day, JHGs high dose 22.81 g/kg/d
[10] = Sprague Dawley, 22.81 g/kg/day, JHGs high dose 22.81 g/kg/d, read-out: Tmax
[11] = Sprague Dawley, 22.81 g/kg/day, high dose 22.81 g/kg/d, n=6 (3rd of 3 stacked values)
[12] = Sprague-Dawley, after administration of JHGs, read-out: Tmax of all dosages

Row | Compound | Clearances ([1]; JHGs high dose 22.81 g/kg/d) | Vss ([1]; JHGs high dose 22.81 g/kg/d) | Clearances ([1]; JHGs low dose 5.70 g/kg/d) | Vss ([1]; JHGs low dose 5.70 g/kg/d) | Clearances ([1]; JHGs medium dose 11.41 g/kg/d) | Vss ([1]; JHGs medium dose 11.41 g/kg/d) | AUC(0-inf) [1, 3] | AUC(0-t) [1, 3] | half-life [1, 3] | MRT last [1, 3] | MRT inf [1, 3] | Tmax [1, 4] | Cmax [1, 5] | AUC(0-inf) [1, 6] | AUC(0-t) [1, 6] | half-life [1, 6] | MRT last [1, 6] | MRT inf [1, 6] | Tmax [1, 7] | Cmax [1, 8] | also measured
1 | O=c1cc(-c2ccc(O)cc2)oc2cc(OC3OC(CO)C(O)C(O)C3O)cc(O)c12 (stereo not drawn) [Apigenin-7-glucoside] | 7.33 ± 1.2 mL/min/kg | 6.6 ± 0.86 L | 3.3 ± 0.67 mL/min/kg | 3.94 ± 0.41 L | 6 ± 1.3 mL/min/kg | 5.33 ± 0.41 L | 29.1 ± 6.32 ng·h/mL | 20.2 ± 1.99 ng·h/mL | 15.4 ± 4.12 h | 8.84 ± 0.05 h | 20.1 ± 4.89 h | 1.83 ± 0.2 h | 1.99 ± 0.17 ng/mL | 28.9 ± 6.86 ng·h/mL | 22.2 ± 2.68 ng·h/mL | 11 ± 5.32 h | 7.89 ± 0.21 h | 15.3 ± 4.77 h | 1.5 h | 3.22 ± 0.44 ng/mL | AUC(0-inf) [1, 9]: 46.5 ± 7.55 ng·h/mL; AUC(0-t) [1, 9]: 36.5 ± 5.3 ng·h/mL; half-life [1, 9]: 9.62 ± 0.54 h; MRT last [1, 9]: 8.8 ± 0.07 h; MRT inf [1, 9]: 15 ± 0.61 h; Tmax [1, 10]: 1.67 ± 0.29 h; Cmax [1, 11]: 3.88 ± 0.42 ng/mL; Tmax [1, 12]: ≤ 2 h
2 | O=c1cc(-c2ccc(O)c(O)c2)oc2cc(O[C@@H]3O[C@H](CO)[C@@H](O)[C@H](O)[C@H]3O)cc(O)c12 [Cynaroside] | 2.5 ± 0.17 mL/min/kg | 1.35 ± 0.09 L | 1 ± 0.17 mL/min/kg | 0.6 ± 0.08 L | 1.3 ± 0.17 mL/min/kg | 0.83 ± 0.06 L | 312 ± 26 ng·h/mL | 290 ± 24.4 ng·h/mL | 5.75 ± 0.55 h | 7.83 ± 0.02 h | 9.56 ± 0.13 h | 6 h | 44 ± 5.61 ng/mL | 433 ± 43.5 ng·h/mL | 402 ± 39.2 ng·h/mL | 5.75 ± 0.11 h | 8.56 ± 0.09 h | 10.3 ± 0.15 h | 6 h | 57.7 ± 5.09 ng/mL | AUCs compared among the analytes [1]: highest; correlation between CL, AUCs (AUC(0–t), AUC (0–∞)), t½, and dose [1]: there was a correlation; pharmacokinetic process (Cmax and AUCs versus dosage) [1]: linear pharmacokinetic process; AUC(0-inf) [1, 9]: 472 ± 31.3 ng·h/mL; AUC(0-t) [1, 9]: 438 ± 27.6 ng·h/mL; half-life [1, 9]: 5.1 ± 0.13 h; MRT last [1, 9]: 7.51 ± 0.01 h; MRT inf [1, 9]: 9.2 ± 0.11 h; Tmax [1, 10]: 6 h; Cmax [1, 11]: 79.5 ± 3.5 ng/mL; Tmax compared among the analytes ([1]; no matter the dosages): longest
3 | COc1ccc(-c2cc(=O)c3c(OC)c(OC)c(OC)c(OC)c3o2)cc1OC [Nobiletin] | 805.7 ± 251.3 mL/min/kg | 882.05 ± 234.11 L | 271.5 ± 60.7 mL/min/kg | 287.56 ± 59.62 L | 466.5 ± 143 mL/min/kg | 642.56 ± 174.23 L | 21.1 ± 6.95 ng·h/mL | 15.6 ± 4.99 ng·h/mL | 13.5 ± 1.64 h | 8.63 ± 0.2 h | 17.8 ± 2.23 h | 0.75 h | 2.51 ± 0.77 ng/mL | 22.3 ± 6.8 ng·h/mL | 14.4 ± 4.14 ng·h/mL | 18.7 ± 2.51 h | 8.19 ± 0.19 h | 23.3 ± 3.85 h | 0.75 h | 3.02 ± 0.58 ng/mL | t1/2 ([1]; JHGs high dose 22.81 g/kg/d): 16.19 ± 7.02 h; AUC(0-inf) [1, 9]: 25.9 ± 9.57 ng·h/mL; AUC(0-t) [1, 9]: 17.9 ± 4.56 ng·h/mL; MRT last [1, 9]: 7.37 ± 0.43 h; MRT inf [1, 9]: 19.5 ± 7.12 h; Tmax [1, 10]: 0.75 h; Cmax [1, 11]: 4.46 ± 1.06 ng/mL; Tmax [1, 12]: ≤ 2 h
4 | COc1ccc(C(C)=O)c(O)c1 [Paeonol] | 2357.3 ± 393.5 mL/min/kg | 1831.33 ± 158.35 L | 1602 ± 417.2 mL/min/kg | 1528.44 ± 295.01 L | 2679.2 ± 604.3 mL/min/kg | 2003.58 ± 215.42 L | 55.6 ± 13 ng·h/mL | 42.4 ± 8.94 ng·h/mL | 13.2 ± 1.77 h | 7.84 ± 0.03 h | 16.1 ± 1.86 h | 0.75 h | 6.6 ± 1.48 ng/mL | 59.2 ± 14.8 ng·h/mL | 48.6 ± 10.1 ng·h/mL | 11.1 ± 1.41 h | 6.91 ± 0.23 h | 12.7 ± 1.67 h | 0.75 h | 11.7 ± 2.03 ng/mL | AUC(0-inf) [1, 9]: 131 ± 20.9 ng·h/mL; AUC(0-t) [1, 9]: 106 ± 6.95 ng·h/mL; half-life [1, 9]: 9.02 ± 3.68 h; MRT last [1, 9]: 7.77 ± 0.37 h; MRT inf [1, 9]: 13.3 ± 3.52 h; Tmax [1, 10]: 2 h; Cmax [1, 11]: 15.7 ± 1.66 ng/mL; Tmax [1, 12]: ≤ 2 h; bioavailability in vivo [2]: poor
5 | CC1=C2CC3C(CC(=O)C4CC(O)CCC43C)C2CCC12OC1CC(C)CNC1C2C (stereo not drawn) [Peimisine] | 3.3 ± 0.5 mL/min/kg | 3.96 ± 0.82 L | 2.5 ± 0.67 mL/min/kg | 3.26 ± 0.57 L | 3.17 ± 0.83 mL/min/kg | 3.98 ± 0.82 L | 19.5 ± 5.73 ng·h/mL | 12.4 ± 2.56 ng·h/mL | 16.5 ± 2.09 h | 9.16 ± 0.22 h | 22.8 ± 3.24 h | 4 h | 1.49 ± 0.16 ng/mL | 26.9 ± 7.93 ng·h/mL | 17.8 ± 4.48 ng·h/mL | 15.2 ± 1.25 h | 9.14 ± 0.03 h | 21.3 ± 1.78 h | 4 h | 2.08 ± 0.54 ng/mL | pharmacokinetic process (Cmax and AUCs versus dosage) [1]: linear pharmacokinetic process; AUC(0-inf) [1, 9]: 48.9 ± 9.74 ng·h/mL; AUC(0-t) [1, 9]: 34.9 ± 8.14 ng·h/mL; half-life [1, 9]: 11.4 ± 0.71 h; MRT last [1, 9]: 11.34 ± 0.11 h; MRT inf [1, 9]: 19.8 ± 0.92 h; Tmax [1, 10]: 8 h; Cmax [1, 11]: 2.35 ± 0.53 ng/mL

Source: publication PMC10534582, “A Pharmacokinetic Study of Sixteen Major Bioactive Components of Jinshui-Huanxian Granules in Pulmonary Fibrosis Model and Control Rats Using Orbitrap Fusion Mass Spectrometry” (Molecules, 2023)
